Entries after “also recorded” stand apart in the source; their conditions may differ.
Assays:
[1] = system: families of European domestic bees; assay: 2nd test in the hives: power of the bee family; format: in vivo, Apis mellifera carpatica; settings: overall dose 2 mg/hive, 10 hives
Protocol: The power of the bee colony represents the number of bees present in the honeycomb at the time of the assessment. The assessment is performed three times per year: at the spring visit (March-April), at the end of spring (20-31 May) and at the visit in autumn (September). After these three assessments, the average power of the bee family is determined. The amount of bees (kg) is determined by multiplying the number of intervals between the frames, uniformly occupied by the bees, by the coefficient 0.25 for the standard […] frame (435×300 mm) and by 0.2 for the standard Langstroth frame (435×230 mm). The 2nd test was performed in the same apiary the following year. Feeding with the complex of the invention took place in spring. The biological tests were monitored up to the month of September. The molecules tested, their concentration in solution and their annual overall doses are listed below: • 1. […] The concentration of the complex in syrup: 1.5×10^-7 mol/L. Overall product dose: 2 mg/colony • 2. […] Overall complex dose: 6 mg/colony • 4. LiCH3COO·H2O for comparison, abbreviated as Li-Ac • The feeding is carried out with 2000 g of candy containing 0.8 mg of product then 6 to 7 L of syrup containing 0.2 mg/L of product. The concentration of product in the syrup: 2.36×10^-6 mol/L that is 1.67×10^-5 g/L. Overall product dose: 2 mg/colony

[2] = system: bee families; settings: feeding method of MD4438; cited from earlier work
[3] = system: HeLa, BxPC-3 and MDCK cells; settings: BxPc-3 and HeLa
Excerpt: For cell culture, human cervical epithelial cells of the HeLa line, human epithelial pancreatic adenocarcinoma cells of the BxPC-3 line and healthy Madin-Darby canine kidney epithelial cells of the MDCK line were used in this study. The Resazurin cell proliferation test was applied according to the literature (S. Anoopkumar-Dukie, J. B. Carey, T. Conere, E. O'Sullivan, F. N. van Pelt, A. Allshire, Br J Radiol 2005, 78, 945, DOI: 10.1259/bjr/54004230). As an indicator of the effectiveness of the experimental compounds on cell proliferation, the median inhibitory concentration (IC50) was used. The lower the IC50 value, the higher the activity (in this case, the cytotoxicity).

[4] = system: bee colonies; assay: 3rd test in the hives: winter mortality of colonies, California 2019; format: in vivo, bees; settings: single dose 4 mg per hive, 25-28 Oct. 2019, counted Jan. 7, 2020; 26 of 75 lost; control hives 61.8%
Protocol: A treatment campaign was carried out in the autumn-winter in apiaries located in California, near San Francisco. This region is particularly vulnerable to winter mortality of bee colonies which can reach as high as 80% in some years.
151 hives, distributed over 6 different apiaries in California to the south of San Francisco were selected. The bees were of different types: Wildflower (VSH-Italian), Beeweaver, Carniolan Californian Bee (Pope Canyon), Californian bee Tom and Italian Californian bee (Sam).
The hives were Langstroth 2 body type hives (15 frames compared to 10 for Dadant hives in Europe).
(§1) 2019 by syringe in the form of a concentrated aqueous solution (8 g/L) in a sugar syrup into the feeding frame. 0.5 mL of this solution was introduced and dispersed in 3.5 liters of sugar syrup at 65% sugar and introduced into the hive. […] The control hives only received sugar syrup.
The surviving colonies were counted on Jan. 7, 2020. A total of 73 colonies out of the initial 151 died, that is an overall mortality of 48.3%.

[5] = system: bee colonies; assay: 4th test in the hives: winter mortality of colonies, California 2020; format: in vivo, bees; settings: counted Dec. 31, 2020, 55 hives, Batch 1 27.3%
Protocol: A second treatment campaign was carried out in the autumn-winter 2020 in apiaries located in California, near San Francisco. This region is particularly vulnerable to winter mortality of bee colonies which can reach as high as 80% in some years.
220 hives distributed over 13 different apiaries in California to the south of San Francisco were selected. Each apiary comprised between 8 and 24 hives. The bees were of different types: 165 hives of Wildflower bees (VSH-Italian) and 55 hives of Beeweaver bees (VSH-Carniolan).
The hives were Langstroth 2 body type hives (15 frames compared to 10 for Dadant hives in Europe). […] 20, 2020 and Oct. 12, 2020.
1 apiary only contained Wildflower type bees. 2 apiaries only contained Beeweaver type bees. The other 10 apiaries comprised Wildflower and Beeweaver bees that were evenly distributed between the 4 batches.
as §1, with “The product Li—Mo2O4-EDTA was introduced on Sep. 20, 2020, and/or on Oct. 12, 2020” for “2019”, “(0.8” for “(8”, “frame feeder. 10” for “feeding frame. 0.5”, “were” for “was”
The dead colonies were counted on Dec. 31, 2020. A total of 28 colonies were dead on 31 Dec. 2020, that is 12.73% of the total. The mortality rate is identical for Wildflower bees (21/165) and Beeweaver bees (7/55). The mortality per batch is distributed as follows: • Batch 1: 15 hives/55 hives, that is 27.3% losses • Batch 2: 0 hive/55 hives, that is 0% losses • Batch 3: 10 hives/55 hives, that is 18.2% losses • Batch 4: 3 hives/55 hives, that is 5.5% losses.

[6] = system: bees; assay: Toxicity study on bees (lifespan of caged bees); format: in vivo
Protocol: Fifty newly hatched bees (age=1 day) were placed in a special cage with a wax strip, water and food, and were kept in the laboratory oven at a constant temperature of 33° C. and 50% humidity. […] The consumption of water and food was checked every day. Dead bees were counted and removed. For statistical reasons, the experiments were repeated up to 3 times if necessary.

For `O=C([O-])CN(CCN(CC(=O)[O-])CC(=O)[O-])CC(=O)[O-].[O]=[Mo+]12[O][Mo+]1(=[O])[O]2.c1ccc([P+](c2ccccc2)(c2ccccc2)c2ccccc2)cc1.c1ccc([P+](c2ccccc2)(c2ccccc2)c2ccccc2)cc1` [PPh4—Mo2O4-EDTA, (PPh4)2[Mo2O4 (EDTA)]·2.5H2O], the “Power of the bee family” value [1] is listed as 120 % relative to batch I and the “Effect on queens and bee families” value [2] is listed as “stimulating the oogenesis functions of the queens, increasing the amount of larvae, improving the quantitative development of the bee families and increasing productivity thereof”.

In the case of `CC(=O)[O-].[Li+]` [Li—Ac, LiCH3COO·H2O, reference compound], the “Power of the bee family” value [1] is reported as 97.5 % relative to batch I.

With `O.O.O.O.O.O.O=C([O-])CN(CCN(CC(=O)[O-])CC(=O)[O-])CC(=O)[O-].[Li+].[Li+].[O]=[Mo+]12[O][Mo+]1(=[O])[O]2` [Li—Mo2O4-EDTA, Li2[Mo2O4 (EDTA)]·6H2O] the “Power of the bee family” value [1] was 120 % relative to batch I, the “Cytotoxicity, conclusion from Table 1” value [3] was “no cytotoxicity” and the “Winter mortality of colonies” value [4] was 34.7%. The “Mortality of colonies (losses)” value ([5]; Batch 2: fed on Sep. 20, 2020, 8 mg) was 0%, the “Mortality of colonies (losses)” value ([5]; Batch 3: fed on Oct. 12, 2020, 8 mg) was 18.2% and the “Mortality of colonies (losses)” value ([5]; Batch 4: fed on Sep. 20, 2020 and Oct. 12, 2020) was 5.5%.

With `O.O.O.O.O.O=C([O-])CN(CCN(CC(=O)[O-])CC(=O)[O-])CC(=O)[O-].[Na+].[Na+].[O]=[Mo+]12[O][Mo+]1(=[O])[O]2` [Na—Mo2O4-EDTA, Na2[Mo2O4 (EDTA)]·5H2O] the “Cytotoxicity, conclusion from Table 1” value [3] was “no cytotoxicity”, the “Survival of caged bees versus control group” value ([6]; 2 mg/L in sucrose solution, p>0.05, χ2=3.36) was “no significant difference; also recorded: does not induce bee mortality” and the “Survival of caged bees versus control group” value ([6]; 20 mg/L in sucrose solution, p>0.05, χ2=0.04) was “no significant difference; also recorded: does not induce bee mortality”.

From patent US12582721B2, “Molybdenum-based feed supplement for bees” (UNIVERSITE DE VERSAILLES—SAINT-QUENTIN-EN-YVELINES, priority 2020, dated 2026)
